Read-outs that look alike come from different tables or passages of the source.
What was measured:
[1] = system: NUGC-3_P53_Luc single clonal cell line (p53 Y220C); test: Reporter gene assay (p53 RE luciferase); type: cell-based; conditions: Homo sapiens, luciferase reporter, 6 hours, normalized to Ref-1a (10 μM) high control, read-out: p53(Y220C)_NUGC-3 EC50
In short: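 Luminescence normalised to DMSO-only (0%) and 10 μM Ref-1a (100%) wells gives % activity, fitted by 4-parameter logistic or Excel to yield EC50 at 50%. Reporter line: NUGC-3 with p53 response element-luc2P, compound-treated 6 h at 37 °C.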

[2] = system: NUGC4 (P53 WT); test: Cell viability assay (CellTiter-Glo, 6 days), NUGC4; type: cell-based; conditions: Homo sapiens, NUGC-4, 144 h; cell viability, 6 days, CellTiter-Glo; read-out: NUGC4 (P53 WT) IC50
In short: (§1)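 After a 6-day compound exposure following overnight plating, ATP luminescence (CellTiter-Glo) gave percent viability relative to DMSO-treated cells and cell-free medium controls. IC50 = concentration at 50% viability, from 4-parameter logistic or Excel fit.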

[3] = molecular target: T1, His-p53 Y220C (94-294) protein (Homo sapiens, UniProt P04637, Y220C); test: In vitro DNA binding assay (HTRF); type: biochemical; conditions: % activation normalized to 2 μM Ref-1a high control
T1 construct: His-p53 Y220C (94-294) protein

[4] = system: NUGC3 (P53 Y220C); test: Cell viability assay (CellTiter-Glo, 6 days), NUGC3; type: cell-based; conditions: Homo sapiens, NUGC-3, 144 h; cell viability, 6 days, CellTiter-Glo; read-out: NUGC3 (P53 Y220C) IC50
In short: as §1

SMILES	EC50 ([1]; NUGC-3)	IC50 [2]	EC50 [3]	IC50 [4]	EC50 ([1]; NUGC-3, 6 h)
CN1CC[C@@H](Nc2cccc3c(CC(F)(F)F)c(C#CCNc4ccc(P(C)(C)=O)cc4S(C)(=O)=O)sc23)[C@@H](F)C1 [Example 175, (4-((3-(7-(((3S,4R)-3-fluoro-1-methylpiperidin-4-yl)amino)-3-(2,2,2-trifluoroethyl)benzo[b]thiophen-2-yl)prop-2-yn-1-yl)amino)-3-(methylsulfonyl)phenyl)dimethylphosphine oxide]	640 nM	35200 nM	66 nM	3550 nM	
CN1CC[C@@H](Nc2cccc3c(CC(F)(F)F)c(C#CCNc4ccc(P(C)(C)=O)c5ncsc45)sc23)[C@@H](F)C1 [Example 220, (7-((3-(7-(((3S,4R)-3-fluoro-1-methylpiperidin-4-yl)amino)-3-(2,2,2-trifluoroethyl)benzo[b]thiophen-2-yl)prop-2-yn-1-yl)amino)benzo[d]thiazol-4-yl)dimethylphosphine oxide]	150 nM	8110 nM	41 nM	250 nM	
COc1cc(P(C)(C)=O)ccc1NCC#Cc1sc2c(N[C@@H]3CCN(C4CCOCC4)C[C@@H]3F)cccc2c1CC(F)(F)F (racemic) [Example 73, (Z)-(4-((3-(7-((3-fluoro-1-(tetrahydro-2H-pyran-4-yl)piperidin-4-yl)amino)-3-(2,2,2-trifluoroethyl)benzo[b]thiophen-2-yl)prop-2-yn-1-yl)amino)-3-methoxyphenyl)dimethylphosphine oxide]	130 nM	3420 nM	70 nM	770 nM	
COCC(O)CN1CC[C@@H](Nc2cccc3c(CC(F)(F)F)c(C#CCNc4ccc(P(C)(C)=O)cc4OC)sc23)[C@@H](F)C1 (relative stereo) [Example 97, 1-[(Z)-4-[[2-[3-(4-dimethylphosphoryl-2-methoxy-anilino)prop-1-ynyl]-3-(2,2,2-trifluoroethyl)benzothiophen-7-yl]amino]-3-fluoro-1-piperidyl]-3-methoxy-propan-2-ol]	150 nM	5720 nM	71 nM	960 nM	
COc1cc(P(C)(C)=O)ccc1NCC#Cc1sc2c(N[C@@H]3CCN(C4CC4)C[C@@H]3F)cccc2c1CC(F)(F)F (racemic) [Example 74, (4-((3-(7-(((Z)-1-cyclopropyl-3-fluoropiperidin-4-yl)amino)-3-(2,2,2-trifluoroethyl)benzo[b]thiophen-2-yl)prop-2-yn-1-yl)amino)-3-methoxyphenyl)dimethylphosphine oxide]	250 nM	2730 nM	127 nM	2050 nM	
CN1CC[C@@H](Nc2cccc3c(CC(F)(F)F)c(C#CCNc4cc(F)c(P(C)(C)=O)cc4F)sc23)[C@@H](F)C1 (racemic) [Example 91, (2,5-difluoro-4-((3-(7-(((Z)-3-fluoro-1-methylpiperidin-4-yl)amino)-3-(2,2,2-trifluoroethyl)benzo[b]thiophen-2-yl)prop-2-yn-1-yl)amino)phenyl)dimethylphosphine oxide]	260 nM	9410 nM	102 nM	1800 nM	
CN1CC[C@@H](Nc2cccc3c(CC(F)(F)F)c(C#CCNc4ccc(P(C)(C)=O)cc4OC(F)(F)F)sc23)[C@@H](F)C1 [Example 138, (4-((3-(7-(((3S,4R)-3-fluoro-1-methylpiperidin-4-yl)amino)-3-(2,2,2-trifluoroethyl)benzo[b]thiophen-2-yl)prop-2-yn-1-yl)amino)-3-(trifluoromethoxy)phenyl)dimethylphosphine oxide]		11100 nM	34 nM	880 nM	70 nM
CN1CC[C@H](Nc2cccc3c(CC(F)(F)F)c(C#CCNc4ccc(P(C)(C)=O)cc4C(F)F)sc23)[C@H](F)C1 [Example 225, (3-(difluoromethyl)-4-((3-(7-(((3R,4S)-3-fluoro-1-methylpiperidin-4-yl)amino)-3-(2,2,2-trifluoroethyl)benzol[b]thiophen-2-yl)prop-2-yn-1-yl)amino)phenyl)dimethylphosphine oxide]		13600 nM	36 nM	440 nM	170 nM

Source: patent US20240400591A1 (Jacobio Pharmaceuticals Co., Ltd., priority 2021, published 2024)
